Data taken from ChEMBL document CHEMBL1141707, “Modification of the side chain of micromolide, an anti-tuberculosis natural product” (2008).
Values after ≈ are worked out from the molar mass of the structure shown.

Test system: Mycobacterium tuberculosis
Test: Antitubercular activity against Mycobacterium tuberculosis H37Rv after 4 days by microplate alamar blue assay
Format: functional
Conditions: 96 h

Point of comparison: CCCCCCCC/C=C\CCCCC1CCC(=O)O1 (racemic), MIC 6.9 µM. Against it:
- CCCCCCC1=NOC(CCCC2CCC(=O)O2)C1 (configuration not stated) — higher, > 128 µM
- CCCCCCCCNC(=O)CCCCC1CCC(=O)O1 (configuration not stated) — higher, > 128 µM
- CCOC(=O)c1cc(CCCCC2CCC(=O)O2)on1 (configuration not stated) — higher, > 128 µM
- CCCCCCCCCCCCCCC1CCC(=O)O1 (configuration not stated) — higher, > 128 µM
- CCCCCCNC(=O)c1cc(CCCCC2CCC(=O)O2)on1 (configuration not stated) — higher, > 128 µM
- O=C1CCC(CCCCC2CC(C(=O)NCc3ccccc3)=NO2)O1 (configuration not stated) — higher, > 128 µM
- CCCCCCCCC(=O)NCCCCC1CCC(=O)O1 (configuration not stated) — higher, > 128 µM
- CCCCCCOC(=O)C1=NOC(CCCCC2CCC(=O)O2)C1 (configuration not stated) — 9.1-fold higher, 63.1 µM
- CCCCCCCC/C=C/CCCCC1CCC(=O)O1 (configuration not stated) — 2.9-fold higher, 19.7 µM
- CCCCCCCCC#CCCCCC1CCC(=O)O1 (configuration not stated) — 6.4-fold higher, 44 µM
- CCOC(=O)C1=NOC(CCCCC2CCC(=O)O2)C1 (configuration not stated) — higher, > 128 µM
- CCCCCCCC#CCCCCC1CCC(=O)O1 (configuration not stated) — 10-fold higher, 70.2 µM
- CC(C)(C)OC(=O)C1=NOC(CCCCC2CCC(=O)O2)C1 (configuration not stated) — higher, > 128 µM
- CCCCCCCC(=O)NCCCCC1CCC(=O)O1 (configuration not stated) — higher, > 128 µM
- O=C1CCC(CCCCC2CC(C(=O)O)=NO2)O1 (configuration not stated) — higher, > 128 µM
- CCCCCCCc1cc(CCCCC2CCC(=O)O2)on1 (configuration not stated) — 9.2-fold higher, 63.4 µM
- O=C1CCC(CCCCC2CC(C(=O)OCc3ccccc3)=NO2)O1 (configuration not stated) — higher, > 128 µM
- CCCCCCNC(=O)C1=NOC(CCCCC2CCC(=O)O2)C1 (configuration not stated) — higher, > 128 µM
- CCN(CC)C(=O)C1=NOC(CCCCC2CCC(=O)O2)C1 (configuration not stated) — higher, > 128 µM
- CCCCCCC/C=C\CCCCC1CCC(=O)O1 (configuration not stated) — 2.1-fold higher, 14.7 µM
- CCCCCCCC1=NOC(CCCCC2CCC(=O)O2)C1 (configuration not stated) — higher, > 128 µM
- CCCCCCC1=NOC(CCCCC2CCC(=O)O2)C1 (configuration not stated) — higher, > 128 µM
- CCCCCCCC1=NOC(CCCC2CCC(=O)O2)C1 (configuration not stated) — higher, > 128 µM

CCCCCCCC/C=C\CCCC[C@@H]1CCC(=O)O1 was tested, and the MIC was 1.5 µg/mL.

Test system: Mycobacterium tuberculosis
Test: Antitubercular activity against Mycobacterium tuberculosis H37Rv by low oxygen recovery assay
Format: functional
Conditions: not given

Point of comparison: CCCCCCCC/C=C\CCCCC1CCC(=O)O1 (racemic), MIC 124 µM (≈ 34.8 µg/mL). Against it:
- CCCCCCCCCCCCCCC1CCC(=O)O1 (configuration not stated) — higher, > 128 µM
